The experiment addresses T1, Nav 1.7 (Homo sapiens, UniProt Q15858).
T1 construct: expressed in transfected cells
Nature of the experiment: Whole-cell voltage clamp electrophysiology, automated patch clamp (marker c in Table of Examples). Format: cell-based. The following applies: marker c = Automated patch clamp data; read-out: Nav 1.7 activity. The method in brief:
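Human NaV1.7 currents were recorded by whole-cell automated patch clamp, on IonWorks Quattro or another automated platform, typically in perforated-patch configuration. The stimulus protocol was designed to probe block mainly of the inactivated state, with a typical sweep stepping from about −65 mV holding to −10 mV, then −100 mV.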
On the technique in general: The patch-clamp technique gives a direct electrical read-out from membranes.
T1 sequence (Q15858 whole entry): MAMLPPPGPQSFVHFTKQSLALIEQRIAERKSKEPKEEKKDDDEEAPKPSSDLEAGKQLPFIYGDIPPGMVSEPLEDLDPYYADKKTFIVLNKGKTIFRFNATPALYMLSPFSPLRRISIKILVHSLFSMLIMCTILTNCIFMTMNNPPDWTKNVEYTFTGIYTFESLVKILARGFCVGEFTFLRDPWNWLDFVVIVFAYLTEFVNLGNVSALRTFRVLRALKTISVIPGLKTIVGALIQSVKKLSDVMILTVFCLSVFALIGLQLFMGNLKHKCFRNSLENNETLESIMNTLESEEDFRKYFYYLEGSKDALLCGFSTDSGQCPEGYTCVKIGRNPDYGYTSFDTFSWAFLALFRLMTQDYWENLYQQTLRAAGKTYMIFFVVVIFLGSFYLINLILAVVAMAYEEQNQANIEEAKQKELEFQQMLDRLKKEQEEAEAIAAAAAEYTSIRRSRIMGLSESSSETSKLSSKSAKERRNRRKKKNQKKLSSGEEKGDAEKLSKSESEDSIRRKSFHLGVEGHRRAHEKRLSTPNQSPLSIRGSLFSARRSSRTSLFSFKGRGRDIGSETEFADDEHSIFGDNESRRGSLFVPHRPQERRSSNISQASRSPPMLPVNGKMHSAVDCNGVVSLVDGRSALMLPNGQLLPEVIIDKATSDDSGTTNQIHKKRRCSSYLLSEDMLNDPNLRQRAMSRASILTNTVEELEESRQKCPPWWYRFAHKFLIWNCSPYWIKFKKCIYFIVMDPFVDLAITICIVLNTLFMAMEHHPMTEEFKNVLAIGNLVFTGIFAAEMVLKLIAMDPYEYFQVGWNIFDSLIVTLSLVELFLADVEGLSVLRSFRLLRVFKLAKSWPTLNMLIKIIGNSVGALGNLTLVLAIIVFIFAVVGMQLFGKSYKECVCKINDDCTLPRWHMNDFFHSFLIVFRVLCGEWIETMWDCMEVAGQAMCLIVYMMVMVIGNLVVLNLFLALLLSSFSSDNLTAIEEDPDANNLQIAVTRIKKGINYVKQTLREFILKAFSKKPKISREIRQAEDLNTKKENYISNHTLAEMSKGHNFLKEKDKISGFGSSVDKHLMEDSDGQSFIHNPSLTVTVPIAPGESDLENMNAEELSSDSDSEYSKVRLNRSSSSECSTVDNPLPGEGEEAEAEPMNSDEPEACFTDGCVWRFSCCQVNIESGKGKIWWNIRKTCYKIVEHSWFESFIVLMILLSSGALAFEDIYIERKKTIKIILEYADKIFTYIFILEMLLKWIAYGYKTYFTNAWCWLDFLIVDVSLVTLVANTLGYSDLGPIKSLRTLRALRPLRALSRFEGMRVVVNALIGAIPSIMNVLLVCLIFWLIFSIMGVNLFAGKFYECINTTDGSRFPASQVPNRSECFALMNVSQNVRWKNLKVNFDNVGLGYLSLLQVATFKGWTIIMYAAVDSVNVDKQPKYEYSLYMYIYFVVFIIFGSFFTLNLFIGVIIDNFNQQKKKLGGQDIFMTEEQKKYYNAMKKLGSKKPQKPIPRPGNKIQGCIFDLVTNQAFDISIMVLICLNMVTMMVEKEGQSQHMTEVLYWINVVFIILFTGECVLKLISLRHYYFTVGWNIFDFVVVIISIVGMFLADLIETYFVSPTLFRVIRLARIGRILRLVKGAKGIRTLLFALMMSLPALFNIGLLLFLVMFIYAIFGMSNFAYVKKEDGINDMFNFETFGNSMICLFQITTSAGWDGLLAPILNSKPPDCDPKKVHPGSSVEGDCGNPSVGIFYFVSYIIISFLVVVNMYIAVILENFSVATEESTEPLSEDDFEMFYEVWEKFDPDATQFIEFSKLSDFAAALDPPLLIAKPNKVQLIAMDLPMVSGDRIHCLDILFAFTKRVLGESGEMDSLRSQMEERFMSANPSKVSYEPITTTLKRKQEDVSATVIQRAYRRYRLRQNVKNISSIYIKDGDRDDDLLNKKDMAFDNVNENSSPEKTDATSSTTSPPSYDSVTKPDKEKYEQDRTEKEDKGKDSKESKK
With `CN(c1ccccc1)c1nc(N)nc(-c2noc(-c3ccn(C)n3)n2)n1` [Example 252, 2-N-methyl-6-[5-(1-methyl-1H-pyrazol-3-yl)-1,2,4-oxadiazol-3-yl]-2-N-phenyl-1,3,5-triazine-2,4-diamine], the IC50 stood at 2380 nM.
In the case of `CN(c1ccccc1)c1nc(N)nc(-c2noc(-c3ccnn3C)n2)n1` [Example 253, 2-N-methyl-6-[5-(1-methyl-1H-pyrazol-5-yl)-1,2,4-oxadiazol-3-yl]-2-N-phenyl-1,3,5-triazine-2,4-diamine], the IC50 worked out at 4560 nM.
With `CN(c1ccccc1)c1nc(N)nc(-c2noc(-c3n[nH]cc3Cl)n2)n1` [Example 254, 6-[5-(4-chloro-1H-pyrazol-3-yl)-1,2,4-oxadiazol-3-yl]-2-N-methyl-2-N-phenyl-1,3,5-triazine-2,4-diamine] the figure was 548 nM.
For `CN(c1ccccc1)c1nc(N)nc(-c2noc(-c3cc(C(F)(F)F)[nH]n3)n2)n1` [Example 255, 2-N-methyl-2-N-phenyl-6-{5-[5-(trifluoromethyl)-1H-pyrazol-3-yl]-1,2,4-oxadiazol-3-yl}-1,3,5-triazine-2,4-diamine], the IC50 amounted to 6450 nM.
The result for `CN(c1ccccc1)c1nc(N)nc(-c2noc(-c3ccnn3CC(F)(F)F)n2)n1` [Example 257, 2-N-methyl-2-N-phenyl-6-{5-[1 - (2,2,2-trifluoroethyl)-1H-pyrazol-5-yl]-1,2,4-oxadiazol-3-yl}-1,3,5-triazine-2,4-diamine] reads 3250 nM.
With `COc1ccc(NC(=O)c2nc(-c3nc(N)nc(N(C)c4ccccc4)n3)no2)cn1` [Example 258, 3-{4-Amino-6-[methyl(phenyl)amino]-1,3,5-triazin-2-yl}-N-(6-methoxypyridin-3-yl)-1,2,4-oxadiazole-5-carboxamide] the figure was 1850 nM; with `CN(c1ccccc1)c1nc(N)nc(-c2noc(C(=O)NCc3ccc(OCC(F)(F)F)nc3)n2)n1` [Example 259, 3-{4-amino-6-[methyl(phenyl)amino]-1,3,5-triazin-2-yl}-N-{[6-(2,2,2-trifluoroethoxy)pyridin-3-yl]methyl}-1,2,4-oxadiazole-5-carboxamide], 422 nM.
As to `COc1ccc(CNC(=O)c2nc(-c3nc(N)nc(N(C)c4ccccc4)n3)no2)cn1` [Example 260, 3-{4-amino-6-[methyl(phenyl)amino]-1,3,5-triazin-2-yl}-N-[(6-methoxypyridin-3-yl)methyl]-1,2,4-oxadiazole-5-carboxamide], the IC50 was determined as 1200 nM.
With `CN(c1ccccc1)c1nc(N)nc(-c2noc(C(=O)Nc3ccc(C(F)(F)F)nc3)n2)n1` [Example 263, 3-{4-amino-6-[methyl(phenyl)amino]-1,3,5-triazin-2-yl}-N-[6-(trifluoromethyl)pyridin-3-yl]-1,2,4-oxadiazole-5-carboxamide], the IC50 came out at 6010 nM.
With `Nc1nc(Nc2cccc(Cl)c2F)nc(-c2noc(-c3ccccn3)n2)n1` [Example 264, 2-N-(3-Chloro-2-fluorophenyl)-6-[5-(pyridin-2-yl)-1,2,4-oxadiazol-3-yl]-1,3,5-triazine-2,4-diamine] the figure was 774 nM; with `Nc1nc(Nc2cccc(Cl)c2)nc(-c2noc(-c3ccccn3)n2)n1` [Example 265, 2-N-(3-chlorophenyl)-6-[5-(pyridin-2-yl)-1,2,4-oxadiazol-3-yl]-1,3,5-triazine-2,4-diamine], 386 nM; with `CN(c1ccccc1)c1nc(N)nc(-c2noc(C3CCCCC3)n2)n1` [Example 266, 6-(5-cyclohexyl-1,2,4-oxadiazol-3-yl)-2-N-methyl-2-N-phenyl-1,3,5-triazine-2,4-diamine], 4370 nM.
The result for `CN(c1ccccc1)c1nc(N)nc(-c2noc(-c3ccc(C(F)(F)F)nc3)n2)n1` [Example 267, 2-N-methyl-2-N-phenyl-6-{5-[6-(trifluoromethyl)pyridin-3-yl]-1,2,4-oxadiazol-3-yl}-1,3,5-triazine-2,4-diamine] reads over 8260 nM; that for `Cc1ncccc1-c1nc(-c2nc(N)nc(N(C)c3ccccc3)n2)no1` [Example 268, 2-N-methyl-6-[5-(2-methylpyridin-3-yl)-1,2,4-oxadiazol-3-yl]-2-N-phenyl-1,3,5-triazine-2,4-diamine], 1360 nM; that for `CN(c1ccccc1)c1nc(N)nc(-c2noc(-c3cccc(N4CCOCC4)n3)n2)n1` [Example 270, 2-N-methyl-6-{5-[6-(morpholin-4-yl)pyridin-2-yl]-1,2,4-oxadiazol-3-yl}-2-N-phenyl-1,3,5-triazine-2,4-diamine], 3650 nM.
In the case of `CN(c1cccc(Cl)c1)c1nc(N)nc(-c2noc(-c3ncccc3F)n2)n1` [Example 272, 2-N-(3-chlorophenyl)-6-[5-(3-fluoropyridin-2-yl)-1,2,4-oxadiazol-3-yl]-2-N-methyl-1,3,5-triazine-2,4-diamine], the IC50 turned out to be 478 nM.
With `CN(c1ccccc1)c1nc(N)nc(-c2noc(-c3ncccc3Cl)n2)n1` [Example 273, 6-[5-(3-chloropyridin-2-yl)-1,2,4-oxadiazol-3-yl]-2-N-methyl-2-N-phenyl-1,3,5-triazine-2,4-diamine], the IC50 turned out to be 253 nM.
For `CN(c1ccccc1)c1nc(N)nc(-c2noc(N3CCC(NC(=O)C(F)(F)F)CC3)n2)n1` [Example 274, N-[1-(3-{4-amino-6-[methyl(phenyl)amino]-1,3,5-triazin-2-yl}-1,2,4-oxadiazol-5-yl)piperidin-4-yl]-2,2,2-trifluoroacetamide], the IC50 came out at 8580 nM.
The result for `CN(c1ccccc1)c1nc(N)nc(-c2noc(-c3cccnc3Cl)n2)n1` [Example 275, 6-[5-(2-chloropyridin-3-yl)-1,2,4-oxadiazol-3-yl]-2-N-methyl-2-N-phenyl-1,3,5-triazine-2,4-diamine] reads 3490 nM; that for `CN(c1ccccc1)c1nc(N)nc(-c2noc(C(=O)N3CCCC3)n2)n1` [Example 276, 2-N-methyl-2-N-phenyl-6-{5-[(pyrrolidin-1-yl)carbonyl]-1,2,4-oxadiazol-3-yl}-1,3,5-triazine-2,4-diamine], 1680 nM.
For the molecule `CN(c1ccccc1)c1nc(N)nc(-c2noc(C(=O)N3CCCCC3)n2)n1` [Example 277, 2-N-methyl-2-N-phenyl-6-{5-[(piperidin-1-yl)carbonyl]-1,2,4-oxadiazol-3-yl}-1,3,5-triazine-2,4-diamine], the IC50 was determined as 3260 nM.
With `COC(=O)c1ccc(-c2nc(-c3nc(N)nc(N(C)c4ccccc4)n3)no2)cn1` [Example 279, methyl 5-(3-{4-amino-6-[methyl(phenyl)amino]-1,3,5-triazin-2-yl}-1,2,4-oxadiazol-5-yl)pyridine-2-carboxylate] the figure was 444 nM.
The result for `CN(c1ccccc1)c1nc(N)nc(-c2noc(-c3ccc(C(=O)NCC(F)(F)F)nc3)n2)n1` [Example 280, 5-(3-{4-Amino-6-[methyl(phenyl)amino]-1,3,5-triazin-2-yl}-1,2,4-oxadiazol-5-yl)-N-(2,2,2-trifluoroethyl)pyridine-2-carboxamide] reads 513 nM; that for `CN(c1ccccc1)c1nc(N)nc(-c2noc(-c3ncc(F)cc3F)n2)n1` [Example 281], 1810 nM.
The result for `Cc1ccc(-c2nc(-c3nc(N)nc(N(C)c4ccccc4)n3)no2)cn1` [Example 283, 2-N-methyl-6-[5-(6-methylpyridin-3-yl)-1,2,4-oxadiazol-3-yl]-2-N-phenyl-1,3,5-triazine-2,4-diamine] reads 1380 nM.
For `CN(c1ccccc1)c1nc(N)nc(-c2noc(-c3ccc(C(N)=O)nc3)n2)n1` [Example 284, 5-(3-{4-Amino-6-[methyl(phenyl)amino]-1,3,5-triazin-2-yl}-1,2,4-oxadiazol-5-yl)pyridine-2-carboxamide], the IC50 was 711 nM.
The result for `COC(=O)c1ccc(-c2nc(-c3nc(N)nc(N(C)c4ccccc4)n3)no2)nc1` [Example 285, methyl 6-(3-{4-amino-6-[methyl(phenyl)amino]-1,3,5-triazin-2-yl}-1,2,4-oxadiazol-5-yl)pyridine-3-carboxylate] reads 308 nM; that for `CN(c1ccccc1)c1nc(N)nc(-c2noc(-c3ccc(C(=O)NC4CCC4)nc3)n2)n1` [Example 286, 5-(3-{4-amino-6-[methyl(phenyl)amino]-1,3,5-triazin-2-yl}-1,2,4-oxadiazol-5-yl)-N-cyclobutylpyridine-2-carboxamide], 1070 nM; that for `CN(c1ccccc1)c1nc(N)nc(-c2noc(-c3ccc(C(=O)NC4CC4)nc3)n2)n1` [Example 287, 5-(3-{4-amino-6-[methyl(phenyl)amino]-1,3,5-triazin-2-yl}-1,2,4-oxadiazol-5-yl)-N-cyclopropylpyridine-2-carboxamide], 1890 nM.
The result for `CN(c1ccccc1)c1nc(N)nc(-c2noc(-c3ccc(C(=O)NCC4CC4)nc3)n2)n1` [Example 288, 5-(3-{4-amino-6-[methyl(phenyl)amino]-1,3,5-triazin-2-yl}-1,2,4-oxadiazol-5-yl)-N-(cyclopropylmethyl)pyridine-2-carboxamide] reads 1140 nM; that for `CC(C)OC(=O)c1ccc(-c2nc(-c3nc(N)nc(N(C)c4ccccc4)n3)no2)cn1` [Example 289, propan-2-yl 5-(3-{4-amino-6-[methyl(phenyl)amino]-1,3,5-triazin-2-yl}-1,2,4-oxadiazol-5-yl)pyridine-2-carboxylate], 390 nM; that for `CN(c1ccccc1)c1nc(N)nc(-c2noc(-c3ccc(C(=O)OC4CCCC4)nc3)n2)n1` [Example 290, cyclopentyl 5-(3-{4-amino-6-[methyl(phenyl)amino]-1,3,5-triazin-2-yl}-1,2,4-oxadiazol-5-yl)pyridine-2-carboxylate], 59 nM.
In the case of `CN(c1ccccc1)c1nc(N)nc(-c2noc(-c3ccc(C(=O)NCC(F)(F)F)cn3)n2)n1` [Example 292, 6-(3-{4-amino-6-[methyl(phenyl)amino]-1,3,5-triazin-2-yl}-1,2,4-oxadiazol-5-yl)-N-(2,2,2-trifluoroethyl)pyridine-3-carboxamide], the IC50 was 2710 nM.

(Values after US8895733B2 (Novartis AG, priority 2010, dated 2014).)
